# How the values were obtained:
# [1] = Physician-reported adverse events, VBP15-LTE/DSUR vs published corticosteroid studies; assay type: in vivo, human
# Experimental: Study visits took place quarterly, including assessment of clinical laboratory results, vital signs, and AEs. All AEs were coded using the Medical Dictionary for Regulatory Activities (MedDRA version 19.0) system for reporting (preferred term and system organ class). Clinical efficacy assessments were performed at baseline of the VBP15-002 study, at six months (end of VBP15-003 study), and the 12-month midpoint visit of the VBP15-LTE study.
# The incidences of physician-reported AEs typically for corticosteroid treatment were determined for participants that had been treated with vamorolone 6.0 mg/kg/day (for any duration), taken from the March 2019 Data Safety Update Report (DSUR) (pharmacovigilance report). Incidence rates of Cushingoid features, weight gain, hirsutism, and behavior change were studied (Table 8).
# boys with DMD = assay: VBP15-003/VBP15-LTE motor outcomes over 18 months vs CINRG DNHS; assay type: in vivo, human; conditions: vs corticosteroid-naïve participants, ANCOVA
# From the text: Assessments of efficacy were motor outcomes (primary outcome: time to stand from supine [TTSTAND]; secondary outcomes: time to run/walk 10 meters [TTRW], time to climb four stairs [TTCLIMB], distance covered in 6-minute walk test [6MWT], and the North Star Ambulatory Assessment [NSAA]). 6MWT and NSAA were not assessed in most CINRG DNHS participants and were not compared to vamorolone-treated participants. According to standard operating procedures, clinical evaluators were trained to harmonize the CINRG vamorolone, CINRG DNHS, and CINRG prednisone studies. Reliability of these outcomes (percent coefficient of variation) has been reported for the VBP15-002/VBP15-003 studies. Assessments were done at baseline (VBP15-002 entry), 24 weeks (VBP15-003 last visit), and 18 months (VBP15-LTE midpoint assessment at 12 months).
# Only participants completing VBP15-002 and VBP15-003 were eligible to enroll in VBP15-LTE. […]
# Statistical analyses were done on paired longitudinal outcome data using an analysis of covariance (ANCOVA) approach with change from baseline (VBP15-002) to month 18 (midpoint of VBP15-LTE). […] For the vamorolone-treated participants, age was calculated as (date of informed consent minus birthdate)/365.25. For the DNHS participants, age was calculated as (date of baseline visit used minus birthdate)/365.25. […]
# [2] = 6.0 mg/kg/day vamorolone, any duration, DSUR Mar. 2019
smiles,measurement,setting,value
"C[C@@H]1C[C@H]2[C@@H]3CCC4=CC(=O)C=C[C@]4(C)C3=CC[C@]2(C)[C@@]1(O)C(=O)CO [Vamorolone, 17α,21-dihydroxy-16α-methylpregna-1,4,9(11)-triene-3,20-dione]",Incidence of Cushingoid,[1]; [2],2.6%
same,Incidence of behavior change,[1]; [2],0%^2
same,Incidence of hypertrichosis/hirsutism,[1]; [2],0%
same,Incidence of weight gain,[1]; [2],13.2%
same,Cushingoid features among the 14 probably/definitely related AEs,"[1]; VBP15-LTE, DSMB report",1
same,TEAEs deemed definitely related,"[1]; VBP15-LTE, DSMB report",three
same,TEAEs deemed possibly related,"[1]; VBP15-LTE, DSMB report",29
same,TEAEs deemed probably related,"[1]; VBP15-LTE, DSMB report",11
same,TEAEs deemed remotely related,"[1]; VBP15-LTE, DSMB report",37
same,TEAEs deemed unrelated,"[1]; VBP15-LTE, DSMB report",402
same,increased appetite among the 14 probably/definitely related AEs,"[1]; VBP15-LTE, DSMB report",2
same,irritability among the 14 probably/definitely related AEs,"[1]; VBP15-LTE, DSMB report",1
same,serious AEs (all deemed unrelated to study drug),"[1]; VBP15-LTE, DSMB report",three
same,weight gain among the 14 probably/definitely related AEs,"[1]; VBP15-LTE, DSMB report",10
same,"TTCLIMB, LS mean difference",boys with DMD,-0.34 s
same,"TTRW, LS mean difference",boys with DMD,-0.84 s

# — US20240299416A1, “TREATMENT OF NF-kB-MEDIATED DISEASE” (ReveraGen BioPharma, Inc., priority 2021, published 2024)
